Laboratory results reported in PubChem BioAssay AID1259411 (Chemical Carcinogenesis Research Information System (CCRIS), 2018).
Calls of active or inactive are those of the source. No rule for the calls is given here.

Tested on: rodent carcinogenicity bioassays, tumor incidence
Test: CCRIS carcinogenicity studies
How it was run: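 Archive of carcinogenicity, mutagenicity, tumor promotion and tumor inhibition results drawn from journals, NCI reports and other sources, expert-reviewed; covers 1985-2011 and is no longer updated.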

In the case of `O=C1CCCO1`, the carcinogen call (Species: MOUSE, Strain/Sex: B6C3F1/FEMALE, Route: GAVAGE, Dose: 0, 262, 525 MG/KG IN CORN OIL 5 D/WK FOR 103 WK (STUDY DURATION: 2 YR), Dose: 0, 262, 525 MG/KG IN CORN OIL 5 D/WK FOR 103 WK (STUDY DURATION: 2 YR)) is reported as “inactive; negative”, the carcinogen call (Species: MOUSE, Strain/Sex: B6C3F1/FEMALE, Route: GAVAGE, Dose: 0, 262, 525 MG/KG IN CORN OIL 5 D/WK FOR 103 WK (STUDY DURATION: 105 WK), Dose: 0, 262, 525 MG/KG IN CORN OIL 5 D/WK FOR 103 WK (STUDY DURATION: 105 WK), Tumor Site: Type of Lesion: ADRENAL MEDULLA: BENIGN OR MALIGNANT PHEOCHROMOCYTOMA) is reported as “equivocal” and the carcinogen call (Species: RAT, Strain/Sex: F344/FEMALE, Route: GAVAGE, Dose: 0, 225, 450 MG/KG IN CORN OIL 5 D/WK FOR 103 WK (STUDY DURATION: 2 YR), Dose: 0, 225, 450 MG/KG IN CORN OIL 5 D/WK FOR 103 WK (STUDY DURATION: 2 YR)) is reported as “inactive; negative”. For the same compound, the carcinogen call (Species: RAT, Strain/Sex: F344/MALE, Route: GAVAGE, Dose: 0, 112, 225 MG/KG IN CORN OIL 5 D/WK FOR 103 WK (STUDY DURATION: 2 YR), Dose: 0, 112, 225 MG/KG IN CORN OIL 5 D/WK FOR 103 WK (STUDY DURATION: 2 YR)) was “inactive; negative”.
In the case of `OC1c2cc3c4c(ccc5cccc(c54)C3)c2C2OC2C1O` (stereo unspecified), the carcinogen call (Species: MOUSE, Strain/Sex: ICR/FEMALE, Route: INTRAPERITONEAL, Dose: 0, 500 NMOL (TOTAL DOSE) ADMINISTERED IN DOSES OF 1/7, 2/7, AND 4/7 ON DAYS 1, 7, AND 15 OF LIFE, RESPECTIVELY (STUDY DU, Tumor Site: Type of Lesion: LUNG: TUMOR) is reported as “active; positive” and the carcinogen call (Species: MOUSE, Strain/Sex: ICR/MALE, Route: INTRAPERITONEAL, Dose: 0, 500 NMOL (TOTAL DOSE) ADMINISTERED IN DOSES OF 1/7, 2/7, AND 4/7 ON DAYS 1, 7 AND 15 OF LIFE , RESPECTIVELY (STUDY DU, Tumor Site: Type of Lesion: LUNG: TUMOR, LIVER: TUMOR) is reported as “active; positive”.
In the case of `O=c1cc[nH]c(=S)[nH]1`, the carcinogen call (Species: MOUSE, Route: ORAL, Tumor Site: Type of Lesion: LIVER) is reported as “active; positive” and the carcinogen call (Species: RAT, Route: ORAL, Tumor Site: Type of Lesion: THYROID GLAND) is reported as “active; positive”.
With `c1ccoc1` the carcinogen call (Species: MOUSE, Strain/Sex: B6C3F1/FEMALE, Route: GAVAGE, Dose: 0, 8, 15 MG/KG IN CORN OIL 5 D/WK FOR 104 WK (STUDY DURATION: 105 WK), Dose: 0, 8, 15 MG/KG IN CORN OIL 5 D/WK FOR 104 WK (STUDY DURATION: 105 WK), Tumor Site: Type of Lesion: ADRENAL MEDULLA: BENIGN PHEOCHROMOCYTOMA, LIVER: HEPATOCELLULAR ADENOMA, HEPATOCELLULAR CARCINOMA) was “active; positive”, the carcinogen call (Species: MOUSE, Strain/Sex: B6C3F1/MALE, Route: GAVAGE, Dose: 0, 8, 15 MG/KG IN CORN OIL 5 D/WK FOR 104 WK (STUDY DURATION: 105 WK), Dose: 0, 8, 15 MG/KG IN CORN OIL 5 D/WK FOR 104 WK (STUDY DURATION: 105 WK), Tumor Site: Type of Lesion: ADRENAL MEDULLA: BENIGN PHEOCHROMOCYTOMA, LIVER: HEPATOCELLULAR ADENOMA, HEPATOCELLULAR CARCINOMA) was “active; positive” and the carcinogen call (Species: MOUSE, Strain/Sex: B6C3F1/MALE, Route: INTRAPERITONEAL, Dose: 0, 200 MG/KG BW ONCE EACH ON POSTNATAL DAYS 3, 6, 9, 12, 15 AND 18 (STUDY DURATION: 95 WK), Tumor Site: Type of Lesion: LIVER: ADENOMA OR CARCINOMA) was “active; positive”. The carcinogen call (Species: MOUSE, Strain/Sex: B6C3F1/MALE, Route: INTRAPERITONEAL, Dose: 0, 400 MG/KG BW ONCE ON POSTNATAL DAY 15 (STUDY DURATION: 95 WK)) was “inactive; negative”, the carcinogen call (Species: RAT, Strain/Sex: B6C3F1/FEMALE, Route: GAVAGE, Dose: 0, 2, 4, 8 MG/KG IN CORN OIL 5 D/WK FOR 103 WK (STUDY DURATION: 104 WK), Dose: 0, 2, 4, 8 MG/KG IN CORN OIL 5 D/WK FOR 103 WK (STUDY DURATION: 104 WK), Tumor Site: Type of Lesion: LIVER: CHOLANGIOCARCINOMA, HEPATOCELLULAR ADENOMA OR CARCINOMA, HEMATOPOIETIC SYSTEM: MONONUCLEAR CELL LEUKEMIA) was “active; positive” and the carcinogen call (Species: RAT, Strain/Sex: F344/MALE, Route: GAVAGE, Dose: 0, 2, 4, 8 MG/KG IN CORN OIL 5 D/WK FOR 103 WK (STUDY DURATION: 104 WK), Dose: 0, 2, 4, 8 MG/KG IN CORN OIL 5 D/WK FOR 103 WK (STUDY DURATION: 104 WK), Tumor Site: Type of Lesion: LIVER:CHOLANGIOCARCINOMA, HEPATOCELLULAR ADENOMA, HEPATOCELLULAR CARCINOMA, HEMATOPOIETIC SYSTEM: MONONUCLEAR CELL LEUKE) was “active; positive”.
In the case of `O[C@H]1C=Cc2nc3c(ccc4ccccc43)cc2[C@@H]1O`, the carcinogen call (Species: MOUSE, Strain/Sex: SWISS/FEMALE, Route: INTRAPERITONEAL, Dose: 0, 1.05 UMOL GIVEN AS 150 NMOL IN 5 µL DMSO WITHIN 24 HR OF BIRTH, 300 NMOL IN 10 µL DMSO ON D 8 OF LIFE, AND 600 NMOL I, Tumor Site: Type of Lesion: LUNG: ADENOMA) is reported as “active; positive” and the carcinogen call (Species: MOUSE, Strain/Sex: SWISS/MALE, Route: INTRAPERITONEAL, Dose: 0, 1.05 UMOL GIVEN AS 150 NMOL IN 5 µL DMSO WITHIN 24 HR OF BIRTH, 300 NMOL IN 10 µL DMSO ON D 8 OF LIFE, AND 600 NMOL I, Tumor Site: Type of Lesion: LUNG: ADENOMA) is reported as “active; positive”.
